Experiments:
BAY61-3606 + Foretinib = compound: COC1=C(C=C(C=C1)C2=CC3=NC=CN3C(=N2)NC4=C(C=CC=N4)C(=O)N)OC [BAY61-3606] + COc1cc2c(Oc3ccc(NC(=O)C4(C(=O)Nc5ccc(F)cc5)CC4)cc3F)ccnc2cc1OCCCN1CCOCC1 [Foretinib] (partner 0.25 µM); experiment: relative viability (nuclei count vs DMSO), 5 days (fraction); higher = more cells survive
Method in brief: (§1)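 After 5 days of treatment, lung cancer cells in 1536-well plates were fixed and stained in a single step (final 0.05% Triton X-100, 1% formaldehyde, 1 ug/ml Hoechst) and their nuclei counted on 4× images. Treatment had been applied by pin tool the day after seeding as one drug alone or as a fixed anchor-drug dose with five library-drug doses (not always all listed) in √10 steps. Relative viability is the nuclei count of treated wells divided by that of vehicle wells, and values are medians of duplicate plates.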

Doxorubicin + Tozasertib = compound: COc1cccc2c1C(=O)c1c(O)c3c(c(O)c1C2=O)C[C@@](O)(C(=O)CO)C[C@@H]3O[C@H]1C[C@H](N)[C@H](O)[C@H](C)O1 [Doxorubicin] + Cc1cc(Nc2cc(N3CCN(C)CC3)nc(Sc3ccc(NC(=O)C4CC4)cc3)n2)n[nH]1 [Tozasertib] (partner 0.1 µM); experiment: as above
Method in brief: as §1

| Cell Line | relative viability (BAY61-3606 + Foretinib; first compound 0.02 µM) | relative viability (BAY61-3606 + Foretinib; first compound 0.06325 µM) | relative viability (BAY61-3606 + Foretinib; first compound 0.2 µM) | relative viability (BAY61-3606 + Foretinib; first compound 0.6325 µM) | relative viability (BAY61-3606 + Foretinib; first compound 2 µM) | relative viability (Doxorubicin + Tozasertib; first compound 0.001 µM) | relative viability (Doxorubicin + Tozasertib; first compound 0.003162 µM) | relative viability (Doxorubicin + Tozasertib; first compound 0.01 µM) | relative viability (Doxorubicin + Tozasertib; first compound 0.03162 µM) | relative viability (Doxorubicin + Tozasertib; first compound 0.1 µM) |
| --- | --- | --- | --- | --- | --- | --- | --- | --- | --- | --- |
| 201T | 1.19 | 1.05 | 1.13 | 1.17 | 1.11 | 0.924 | 0.955 | 0.949 | 0.927 | 0.924 |
| NCI-H358 | 0.773 | 0.457 | 0.652 | 0.637 | 0.286 | 0.107 | 0.0976 | 0.0897 | 0.1 | 0.0933 |
| NCI-H650 | 1.1 | 1.02 | 1.02 | 1.09 | 0.8 | 0.908 | 0.736 | 0.784 | 0.582 | 0.63 |
| PC-3 [JPC-3] |  | 1.03 | 1.08 | 1.06 | 0.949 | 0.887 | 0.888 | 0.915 | 0.866 | 0.856 |
| HCC-15 | 0.99 | 0.981 | 0.963 | 1.05 | 0.83 |  | 0.428 | 0.454 | 0.201 | 0.116 |
| NCI-H1650 | 1.14 | 1.02 | 1.02 | 1.34 | 0.498 | 0.411 | 0.32 | 0.261 | 0.207 | 0.111 |
| ABC-1 | 1.19 | 0.973 | 0.971 | 1.11 | 0.907 | 0.223 | 0.207 | 0.153 | 0.184 | 0.181 |
| LCLC-97TM1 | 0.92 | 0.943 | 0.962 | 1.04 | 0.765 | 0.183 | 0.191 | 0.216 | 0.268 | 0.319 |
| NCI-H647 | 1.24 | 1.1 | 1.14 | 1.27 | 0.878 | 0.305 | 0.181 | 0.431 | 0.18 | 0.125 |
| EPLC-272H | 0.705 | 0.6 | 0.789 | 0.694 | 0.397 | 0.423 | 0.401 | 0.238 | 0.26 | 0.506 |

From the supplement of paper PMC10307832
